# Active and inactive are the calls of the source. The rule behind the calls is not given here.
# Target: T1, Xanthine dehydrogenase/oxidase (Bos taurus, UniProt P80457)
# Experiment: Mixed type inhibition of bovine xanthine oxidase assessed as inhibitory constant using xanthine as substrate preincubated for 25 mins followed by substrate addition measured at first 2 mins by spectrophotometry based Lineweaver-Burk plot analysis
# Conditions: not given
# T1 sequence (P80457 whole entry): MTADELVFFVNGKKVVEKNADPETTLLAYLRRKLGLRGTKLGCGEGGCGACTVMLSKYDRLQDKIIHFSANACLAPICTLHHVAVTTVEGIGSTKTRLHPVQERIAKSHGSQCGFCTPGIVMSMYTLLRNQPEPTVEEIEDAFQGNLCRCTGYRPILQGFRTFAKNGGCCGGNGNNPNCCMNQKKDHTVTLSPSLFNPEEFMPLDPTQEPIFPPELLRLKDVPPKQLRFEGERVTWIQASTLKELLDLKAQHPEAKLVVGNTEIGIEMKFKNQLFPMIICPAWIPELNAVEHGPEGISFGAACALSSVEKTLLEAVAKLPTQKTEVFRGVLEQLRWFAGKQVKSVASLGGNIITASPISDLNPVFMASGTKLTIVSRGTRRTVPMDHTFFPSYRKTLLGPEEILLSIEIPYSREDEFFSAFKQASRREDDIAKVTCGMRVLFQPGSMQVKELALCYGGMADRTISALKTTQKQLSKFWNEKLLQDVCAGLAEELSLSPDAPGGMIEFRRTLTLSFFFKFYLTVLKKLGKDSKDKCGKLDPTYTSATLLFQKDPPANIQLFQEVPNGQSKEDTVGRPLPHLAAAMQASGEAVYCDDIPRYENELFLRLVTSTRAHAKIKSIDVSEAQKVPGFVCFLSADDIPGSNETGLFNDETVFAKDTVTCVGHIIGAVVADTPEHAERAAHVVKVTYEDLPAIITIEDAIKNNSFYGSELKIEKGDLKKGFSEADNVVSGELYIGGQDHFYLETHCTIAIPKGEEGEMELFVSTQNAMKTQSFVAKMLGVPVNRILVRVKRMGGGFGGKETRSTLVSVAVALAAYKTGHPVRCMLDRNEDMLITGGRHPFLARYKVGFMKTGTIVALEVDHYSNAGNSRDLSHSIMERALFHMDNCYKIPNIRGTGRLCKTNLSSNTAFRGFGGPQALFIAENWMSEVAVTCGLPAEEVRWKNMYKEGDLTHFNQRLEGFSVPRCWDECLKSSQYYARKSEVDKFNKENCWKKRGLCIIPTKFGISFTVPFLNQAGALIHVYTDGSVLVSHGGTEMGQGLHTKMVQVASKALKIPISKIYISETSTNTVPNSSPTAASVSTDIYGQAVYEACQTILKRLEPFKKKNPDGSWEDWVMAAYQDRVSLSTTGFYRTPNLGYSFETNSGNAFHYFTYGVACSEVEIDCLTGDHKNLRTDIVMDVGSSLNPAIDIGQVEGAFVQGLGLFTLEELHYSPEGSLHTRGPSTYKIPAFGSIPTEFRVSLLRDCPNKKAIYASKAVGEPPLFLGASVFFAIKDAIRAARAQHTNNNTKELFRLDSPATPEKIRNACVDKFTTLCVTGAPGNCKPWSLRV
row,Ki [nM],SMILES
1,138,N#Cc1cn(C2CCCC2)c2ccc(-c3noc(=O)[nH]3)cc12

# Tested on: Rattus norvegicus
# Experiment: Hypouricemic activity in Sprague-Dawley rat model of Potassium oxonate-induced acute hyperuricemia assessed as percentage decrease in serum uric acid AUC (1 to 8 hrs) at 10 mg/kg, ig administered 1 hr after potassium oxonate treatment and measured after 8 hrs relative to control
# Assay type: functional
# Design: scale not given: the % may be the effect or the level left
# Conditions: not given
row,SMILES,Activity [%]
1,N#Cc1cn(C2CCCC2)c2ccc(-c3noc(=O)[nH]3)cc12,12.8

# Target: T1, Xanthine dehydrogenase/oxidase
# Experiment: Inhibition of bovine xanthine oxidase assessed as reduction in uric acid formation at 10 uM using xanthine as substrate preincubated for 25 mins followed by substrate addition measured at first 2 mins by spectrophotometric analysis relative to control
# Conditions: cattle, time 27 min
row,inhibition at 10 µM [%],SMILES
1,< 50,O=c1[nH]c(-c2ccc3c(ccn3C3CCCC3)c2)no1
2,< 50,CC(C)n1ccc2cc(-c3noc(=O)[nH]3)ccc21

# Target: T1, Xanthine dehydrogenase/oxidase
# Experiment: Inhibition of bovine xanthine oxidase assessed as reduction in uric acid formation using xanthine as substrate preincubated for 25 mins followed by substrate addition measured at first 2 mins by spectrophotometric analysis
# Conditions: not given
row,SMILES,IC50 [nM]
1,N#Cc1cn(Cc2cccc(Br)c2)c2ccc(-c3noc(=O)[nH]3)cc12,2600
2,N#Cc1cn(CC2CCCCC2)c2ccc(-c3noc(=O)[nH]3)cc12,2860
3,N#Cc1cn(Cc2cccc(F)c2)c2ccc(-c3noc(=O)[nH]3)cc12,3600
4,N#Cc1c[nH]c2ccc(-c3noc(=O)[nH]3)cc12,4130
5,Cc1ccc(Cn2cc(C#N)c3ccc(-c4noc(=O)[nH]4)cc32)cc1,1840
6,CC(C)n1cc(C#N)c2ccc(-c3noc(=O)[nH]3)cc21,1800
7,N#Cc1cn(Cc2ccccc2)c2ccc(-c3noc(=O)[nH]3)cc12,1720
8,N#Cc1cn(Cc2ccc(Br)cc2)c2ccc(-c3noc(=O)[nH]3)cc12,2070
9,N#Cc1cn(Cc2cccc(Cl)c2)c2ccc(-c3noc(=O)[nH]3)cc12,2930
10,Cc1cccc(Cn2cc(C#N)c3cc(-c4noc(=O)[nH]4)ccc32)c1,2160
11,N#Cc1cn(Cc2ccc(Cl)cc2)c2ccc(-c3noc(=O)[nH]3)cc12,2400
12,N#Cc1cn(Cc2ccc(F)cc2)c2ccc(-c3noc(=O)[nH]3)cc12,1710
13,Cn1cc(C#N)c2cc(-c3noc(=O)[nH]3)ccc21,5410
14,CC(C)CCn1cc(C#N)c2ccc(-c3noc(=O)[nH]3)cc21,6560

# Next, values leading:
row,IC50 [nM],SMILES
1,1020,CC(C)CCn1cc(C#N)c2cc(-c3noc(=O)[nH]3)ccc21
2,410,CC(C)n1cc(C#N)c2cc(-c3noc(=O)[nH]3)ccc21
3,1020,COc1ccc(Cn2cc(C#N)c3cc(-c4noc(=O)[nH]4)ccc32)cc1
4,1140,Cc1ccc(Cn2cc(C#N)c3cc(-c4noc(=O)[nH]4)ccc32)cc1
5,880,N#Cc1cn(CC2CC2)c2ccc(-c3noc(=O)[nH]3)cc12
6,1240,CC(C)=CCn1cc(C#N)c2cc(-c3noc(=O)[nH]3)ccc21
7,1440,CC(C)(C)c1ccc(Cn2cc(C#N)c3cc(-c4noc(=O)[nH]4)ccc32)cc1
8,820,N#Cc1cn(C2CCCC2)c2cc(-c3noc(=O)[nH]3)ccc12
9,1700,COc1cccc(Cn2cc(C#N)c3cc(-c4noc(=O)[nH]4)ccc32)c1
10,1090,CC(C)Cn1cc(C#N)c2cc(-c3noc(=O)[nH]3)ccc21

# Tested on: Rattus norvegicus
# Experiment: Hypouricemic activity in Sprague-Dawley rat model of Potassium oxonate-induced acute hyperuricemia assessed as decrease in serum urate level at 10 mg/kg, ig administered 1 hr after potassium oxonate treatment and measured after 8 hrs
# Assay type: functional, organism-based
# Conditions: not given
row,SMILES,Activity
1,N#Cc1cn(C2CCCC2)c2ccc(-c3noc(=O)[nH]3)cc12,Active

# Tested on: Rattus norvegicus
# Experiment: Hypouricemic activity in Sprague-Dawley rat model of Potassium oxonate-induced acute hyperuricemia assessed as decrease in serum uric acid level at 10 mg/kg, ig administered 1 hr after potassium oxonate treatment and measured after 3 hrs relative to control
# Assay type: functional
# Design: scale not given: the % may be the effect or the level left
# Conditions: time 4 hrs
row,SMILES,Activity [%]
1,N#Cc1cn(C2CCCC2)c2ccc(-c3noc(=O)[nH]3)cc12,20.8
